Measured values reported in patent US7070965B1, “Small molecule anticancer compounds and related production process” (priority 1998, dated 2006).

Assays:
[1] = test system: Human leukemia cell line K562; assay: MTT assay, inhibition of cell growth; format: cell-based; conditions: Homo sapiens, K562; 30 μg/ml; 24 hours; dissolved with NaOH solution, pH 7.5; read-out: Inhibitory rate (%) on K562 cell growth
Protocol: MTT assay was performed to test the cytotoxicity. The K562 and SGC7901 cells were maintained in exponential growth in RPMI 1640 medium supplemented with 15% heat-inactivated newborn calf serum. The cells were plated at a density of 2×10^4 cells/100 μl medium/well into 96-well plate with medium containing samples in five final concentrations (7.5, 15, 30, 60 and 90 μg/ml) for iso-C15 (either synthesized or extracted) and one final concentration (30 μg/ml) for the others. The media in control wells contained no samples. The cells were incubated at 37° C. in a highly humidified incubator under 5% CO2 atmosphere for 24 hours. The supernatant was removed by fast inversion of the plate. 20 μl of 5 mg/ml MTT solution were added into each well. Incubation was continued for 4 hours. DMSO 100 μl/well was added and the plate was vibrated for 10 minutes. A570nm was read at the Immunoreader BioTek EL311S.
The inhibition rate (%)=1−(mean A570nm in test wells/mean A570nm in control wells)

[2] = test system: Human gastric adenocarcinoma SGC-7901 xenograft; assay: Human gastric adenocarcinoma SGC-7901 xenografted into nude mice; format: in vivo, Balb/c-nu/nu athymia mice; conditions: MMC 2.0 mg/kg i.p. Qd × 14
Protocol: Female Balb/c-nu/nu athymia mice, 6 weeks old, weighing 18–22 g, housed in specific pathogen free (SPF) condition throughout the course of experiment; concentrated Q-can oral liquid contains 3.6 mg/ml specific branched-chain fatty acids; the drug used for positive control mitomycin C (MMC) was commercially available from Kyowa Hakko Kogyo Co., Ltd., Japan.
Human gastric adenocarcinoma SGC-7901 xenograft was established and maintained. For the experiment, the xenograft fragments of diameter of about 2 mm were inoculated subcutaneously into the right submaxillary regions of nude mice. The animals were randomly divided into five groups five days after inoculation. […] groups, respectively, while concentrated Q-can oral liquid was given in test groups once a day p.o., starting on the same day, at daily doses of 18, 36 and 72 mg branched-chain fatty acids per kg weight, respectively, for 14 days. Experiment was terminated 20 days post-implantation, and mice were sacrificed by spinal elongation. Tumors were removed and the weights of treated versus control tumors were compared. Inhibition rate was calculated. The experiment was repeated once.

[3] = test system: Lewis mouse lung tumor
Protocol: Concentrated Q-can oral liquid (containing specific branched-chain fatty acids 3.6 mg/ml); Female F1 mice (C57/B1 and DBA/2) weighing 18–22 g; Lewis mouse lung tumor.
The mice of the test group were administrated with concentrated Q-can oral liquid at a daily dose of 36 mg specific branched-chain fatty acids per kg weight for 10 days before transplantation of Lewis mouse lung tumor. All the mice were transplanted subcutaneously in the subaxillary region with a piece of Lewis tumor of approximately 2 mm in diameter. The treatments of intraperitoneal injection of chemotherapy drug Cytoxan (CTX) in 30 mg/kg were given once a day after transplantation over an 8 day period for the positive control group. The treatments for the normal control group were daily injection of normal saline for 8 days. The administration of concentrated Q-can oral liquid for the test group was initiated 10 days before tumor transplantation and continued for another 8 days. Finally all the animals were sacrificed by spinal elongation. Tumors were excised and body and tumor weights were recorded.

[4] = test system: SNU-423 human hepatocellular carcinoma cells; assay: Apoptosis morphology, light microscope; format: cell-based; conditions: 60 μg/ml, 24 hours
Protocol: (§1) Human cancer cell lines DU-145 (prostate cancer), K562 (leukemia), HCT116 (colon cancer), H1688 (lung cancer), SUN423 (hepatocarcinoma), MCF7 (breast cancer), CRL-1687 (pancreatic cancer), and SUN-1 (gastric cancer) were obtained from American Type Culture Collection (ATCC). 30 ml blood was collected from a health person and normal peripheral mononuclear cells were separated by Ficoll separation solution (Sigma). All cells were maintained in RPMI 1640, DMEM, or McCoy medium supplemented with 10% FCS, […] streptomycin and 100 u/ml penicillin. Normal human peripheral mononuclear cells, K562 and SUN-1 were suspended cells. After spinning at 1,500 RPM for 5 min, supernatants were discharged and cells were resuspended and expended in fresh medium. The other tumor cell lines were adherent cells and were dispersed with 0.05% trypsin/0.01% EDTA (Irvine Scientific, CA) for expansion. Cells were seeded in T75 flasks at 2×10^6 cells/flask in culture medium supplemented with 10% fetal bovine serum and incubated overnight at 37° C. with 5% CO2. […] Cells were then prepared for flow cytometry analysis, in situ cell death detection, DNA fragmentation and Western blot assay followed the preparation methods for each assay. Cell pellets treated for 2 and 4 hr with either iso-C15 or control were also stored at −70° C. for future studies of gene regulation. […]

[5] = test system: SNU-1 human gastric carcinoma cell lines; assay: Apoptosis morphology, H&E, light microscope; format: cell-based; conditions: 60 μg/ml, 8 hours
Protocol: as §1

[6] = test system: MCF-7 human breast adenocarcinoma cells; assay: Flow cytometry annexin V / PI apoptosis detection; format: cell-based; conditions: 60 μg/ml
Protocol: Human cancer cell lines DU-145 (prostate cancer), K562 (leukemia), HCT116 (colon cancer), H1688 (lung cancer), SUN423 (hepatocarcinoma), MCF7 (breast cancer), CRL-1687 (pancreatic cancer), and SUN-1 (gastric cancer) were obtained from American Type Culture Collection (ATCC). 30 ml blood was collected from a health person and normal peripheral mononuclear cells were separated by Ficoll separation solution (Sigma). All cells were maintained in RPMI 1640, DMEM, or McCoy medium supplemented with 10% FCS, […] streptomycin and 100 u/ml penicillin. Normal human peripheral mononuclear cells, K562 and SUN-1 were suspended cells. After spinning at 1,500 RPM for 5 min, supernatants were discharged and cells were resuspended and expended in fresh medium. The other tumor cell lines were adherent cells and were dispersed with 0.05% trypsin/0.01% EDTA (Irvine Scientific, CA) for expansion. Cells were seeded in T75 flasks at 2×10^6 cells/flask in culture medium supplemented with 10% fetal bovine serum and incubated overnight at 37° C. with 5% CO2. The adherent cells attached to the plate were striped with disposable cell scrapers (Fisher Scientific) after treated either with 1% iso-C15, anteiso-C15 or control solution for 1, 2, 4, 8 and 24 hours and then combined with respective float cells. Cells were then prepared for flow cytometry analysis, in situ cell death detection, DNA fragmentation and Western blot assay followed the preparation methods for each assay. Cell pellets treated for 2 and 4 hr with either iso-C15 or control were also stored at −70° C. for future studies of gene regulation.
A flow cytometer (FACScan) with Consort 30 software for gating analysis (Becton Dickinson, San Jose, Calif.) was used. The Apoptosis Detection kit (R&D Systems) was used to quantitatively determine the percentage of cells undergoing apoptosis by virtue of their ability to bind annexin V and exclude propidium iodide (PI). Cells were washed in cold PBS twice and resuspended in binding buffer. Fluorescent-labeled annexin V and PI were added to the cells. The cells undergoing apoptosis, expressing phosphotidyiserine on the outer leaflet of cell membranes, would bind annexin V. The cells in later stage of apoptosis or necrosis, with a compromised cell membrane, would allow PI to bind to the cellular DNA. The resulting cells were immediately analyzed by flow cytometer equipped with a single laser emitting excitation light at 488 nm. The annexin V and PI generated signals can be detected in signal detector FL1 and FL2, respectively. […]

[7] = test system: mouse liver cancer HAC cell line; assay: Enhancement of effectiveness of CP, mouse liver cancer HAC ascites model; format: in vivo, Kunming mice; conditions: CP 50 mg/kg i.p. only (positive control)
Protocol: Q-can oral liquid; mouse liver cancer HAC cell line; male Kunming mice weighing 20–25 g; commercial cyclophosphamide (CP).
Forty mice were randomly divided into 5 groups. In three test groups, 36%, 60% and 100% Q-can oral liquids (diluted with water) were given, respectively, while water was given in both control groups. On the 8th day, 0.2 ml HAC cancer cell suspensions (10^7/ml) were injected into the abdominal cavities of each mouse under aseptic condition. On the 1st, 3rd and 5th days after injection. CP (50 mg/kg) was injected i.p. into the mice in all test groups and positive control group. From the 9th day after injection, normal feeding was resumed as before the test. Date of death of each mouse was recorded, and the average life span and the rate of increase in life span were calculated. The rate of increase in life span (ILS %) is defined as following: […]

[8] = CTX 30 mg/kg i.p. once a day, 8 days

CCC(C)CCCCCCCCCCCC(=O)O (stereo not drawn) [anteiso-C16, 13-methylpentadecanoic acid]
inhibition at 30 µg/mL [1]: 70.7%

CC(C)CCCCCCCCCCCCCCCCC(=O)O [iso-C20, 18-methylnonadecanoic acid]
inhibition at 30 µg/mL [1]: 62.6%

CC(C)CCCCCCCCCCCCC(=O)O [iso-C16, 14-methylpentadecanoic acid]
inhibition at 30 µg/mL [1]: 71.6%

CO[C@@]12[C@H](COC(N)=O)C3=C(C(=O)C(C)=C(N)C3=O)N1C[C@@H]1N[C@@H]12 [MMC, mitomycin C]
Body wt. Fi. ([2]; Test I): 22.0
Body wt. In. ([2]; Test I): 22.4
Inhibition % ([2]; Test I): 71.49%
Tumor wt. X ± SD ([2]; Test I): 0.33 ± 0.24 g
Body wt. Fi. ([2]; Test II): 21.1/21.1
Body wt. In. ([2]; Test II): 21.1/21.1
Inhibition % ([2]; Test II): 73.51%
Tumor wt. X ± SD ([2]; Test II): 0.30 ± 0.33 g

CC(C)CCCCCCCCCC(=O)O [iso-C13, 11-methyllauric acid]
inhibition at 30 µg/mL [1]: 71%

CCC(C)CCCCCCCCCCCCCC(=O)O (stereo not drawn) [anteiso-C18, 15-methylheptadecanoic acid]
inhibition at 30 µg/mL [1]: 71.7%

O=P1(N(CCCl)CCCl)NCCCO1 (stereo not drawn) [CTX, Cytoxan]
body weight in. (initial) ([3]; CTX 30 mg/kg i.p.): 21.2 g
TIR [3, 8]: 62.6%
body weight fi. (final) [3, 8]: 20.3 g
tumor weight mean ± SD [3, 8]: 0.71 ± 0.36 g
viability ([3]; CTX i.p. injection, 8-day period): 70%

CC(C)CCCCCCCCCCCCCC(=O)O [iso-C17, 15-methylpalmitic acid]
inhibition at 30 µg/mL [1]: 70.8%

CCC(C)CCCCCCCCCCC(=O)O (stereo not drawn) [anteiso-C15, 12-methyltetradecanoic acid]
inhibition at 30 µg/mL [1]: 73.1%
morphological changes indicative of apoptosis [4]: exhibited cell volume decrease due to shrinkage and bubbles inside the cell
morphological changes indicative of apoptosis [5]: chromatin condensation and cytoplasmic granularity were noted
FL1/FL2 pattern (annexin V / PI), apoptosis ([6]; 4 hours): many cells were undergoing apoptosis
FL1/FL2 pattern (annexin V / PI), apoptosis ([6]; 24 hours): the majority of cells had already died

CCC(C)CCCCCCCCCC(=O)O (stereo not drawn) [anteiso-C14, 11-methyltridecanoic acid]
inhibition at 30 µg/mL [1]: 72.6%

CC(C)CCCCCCCCC(=O)O [iso-C12, 10-methylundecanoic acid]
inhibition at 30 µg/mL [1]: 70.7%

CC(C)CCCCCCCCCCCCCCCC(=O)O [iso-C19, 17-methylstearic acid]
inhibition at 30 µg/mL [1]: 69.2%

O=P1(N(CCCl)CCCl)NCCCO1 (stereo not drawn) [CP, cyclophosphamide]
ILS % (rate of increase in life span) [7]: 22.86%
life span [7]: 13.06 ± 3.03 days
mice No (>17 d) [7]: 1
prolonged days [7]: 2.44 ± 2.58 days

CC(C)CCCCCCCCCCC(=O)O [iso-C14, 12-methyltridecanoic acid]
inhibition at 30 µg/mL [1]: 72.2%

CC(C)CCCCCCCCCCCCCCC(=O)O [iso-C18, 16-methylheptadecanoic acid]
inhibition at 30 µg/mL [1]: 68.4%
